Source: patent publication US20200360400A1, “COMPOSITIONS AND METHODS FOR THE TREATMENT OF ADDICTION, PSYCHIATRIC DISORDERS, AND NEURODEGENERATIVE DISEASE” (Embera NeuroTherapeutics, Inc., priority 2017, published 2020)
Entries after “also recorded” stand apart in the source; their conditions may differ.

Key:
[1] = Cocaine interaction crossover study: pharmacokinetics
Procedure: This was a double-blind, placebo-controlled, randomized, crossover study of non-treatment-seeking subjects with cocaine use disorder (CUD). […] On the last day of each dosing week, subjects received 40 mg IV cocaine. Primary outcomes were safety and pharmacokinetics (PK).
• Subjects: Non-treatment seeking subjects with cocaine use disorder, ages 21-55 • Design: Single center, randomized, double-blind (DB), placebo-controlled (PLB), 2-period crossover design • Dosing: • One week of dosing with MET/OX (EMB-001) and one week of placebo, separated by one-week washout (randomized, DB, counterbalanced) • 40 mg IV cocaine & saline infusions on 7th day of dosing of MET/OX and placebo • Dose of MET/OX: 720 mg MET & 24 mg OX, BID • Primary Objective: Safety of MET/OX when co-administered with cocaine • Secondary Objectives: • Effects of MET/OX on PK of cocaine • Effects of cocaine on PK of MET/OX • Exploratory Objective: • Effects of MET/OX on measures of craving and subjective effects produced by cocaine

adult male Wistar rats [2] = experiment: Intravenous cocaine self-administration under a multiple, alternating schedule of food reinforcement and cocaine self-administration; assay type: in vivo, rat
Procedure: Adult male Wistar rats were trained under a multiple, alternating schedule of cocaine and food self-administration. This schedule consisted of alternating periods of cocaine access and food reinforcement. In some instances, as described further below, three doses of cocaine (0.125, 0.25, or 0.50 mg/kg/infusion) were tested. Rats were also periodically trained with saline substitution (cocaine extinction) and food extinction during the same session.
In our model, rats were exposed to alternating 15-minute periods of access to cocaine self-administration and food reinforcement. Food was used to control for potential nonspecific, ataxis effects of the drugs and combinations.
More specifically, adult male Wistar rats were implanted with chronic jugular catheters. Following recovery from surgery, the rats were trained to respond under a multiple, alternating schedule of food reinforcement and cocaine self-administration. Food-maintained responding was used to control for the non-specific motor effects of the various treatments. During the food component of the schedule, the stimulus light located above the food response lever was illuminated to indicate the availability of food reinforcement. […] A 25-second timeout followed the delivery of each food pellet. During this timeout, the stimulus light was darkened and responses on the food lever were counted but had no scheduled consequences. Responding on the other (cocaine) lever during the food component also had no scheduled consequences. […] Following 15 minutes of access to food, all stimulus lights in the chamber were darkened for a 1-minute timeout. Following the timeout, the stimulus light above the cocaine response lever was illuminated to indicate the availability of cocaine (0.125, 0.25, or 0.5 mg/kg/infusion). […] A 20-second timeout period followed each infusion. […] After 15 minutes of access to cocaine and a 1-minute timeout, the rats were again allowed 15 minutes access to the food component of the schedule. Access to food and cocaine alternated in this manner every 15 minutes during the two hour behavioral sessions so that each rat was exposed to food and cocaine for four 15-minute periods each. Each behavioral session began with 15 minutes access to either food or cocaine, and this alternated daily. Stable baselines of responding were established when the total number of cocaine and food presentations, as well as the number of presentations during each of the four exposures each session, varied less than 10% for three consecutive sessions. At least three different doses of cocaine (e.g., 0.125, 0.25, and 0.5 mg/kg/infusion) were tested. Rats were first trained to self-administer 0.25 mg/kg/infusion, our standard dose of cocaine. When responding stabilized, the dose was changed to 0.125 or 0.5 mg/kg/infusion as appropriate.
Once stable baselines of responding were obtained, dose-response curves for the various compounds were individually generated for each rat. Rats were treated with each dose at least twice with a minimum of two days of baseline cocaine self-administration interspersed between each test. Each group of rats was tested with only two of the test compounds to minimize potential carryover effects. […] This rationale guided the selection of the doses of each of the compounds in the combination studies. Each experimental group consisted of between 8 and 10 rats.

adult male Wistar rats [3] = experiment: Cue-induced reinstatement of extinguished cocaine seeking; assay type: in vivo, rat; settings: for reinstatement of extinguished cocaine seeking: pretreatment with the drug alone, general statement
Procedure: The experiments described herein were designed to investigate whether or not drug combinations identified as effective in reducing cocaine self-administration would also block the ability of conditioned cues to reinstate extinguished cocaine-seeking behavior. Adult male Wistar rats were implanted with chronic jugular catheters and trained to self-administer cocaine (0.25 mg/kg/infusion) by pressing one of the response levers in the experimental chamber (i.e., the “active” or “cocaine” lever) under a fixed-ratio four (FR4) schedule of reinforcement during daily 2-hour sessions conducted 5 days per week. At the start of each session, both levers were extended into the chamber and the stimulus light above the active lever was illuminated to indicate the availability of cocaine. […] A 20-second timeout period followed each infusion. The stimulus light above the active lever and the house light and tone compound stimulus were extinguished during the timeout period, and the light above the active lever was illuminated once the timeout ended. When responding on the active lever varied less than 20% for two consecutive days, the response requirement was increased to FR2. When similar stability was observed under the FR2 schedule or reinforcement, the response requirement was increased to the final ratio of four. The criteria for stable responding under the FR4 schedule of reinforcement was a minimum of 10 days of exposure to this schedule that concluded with at least three consecutive days when responding varied by less than 10%. […] Once stable cocaine self-administration was observed, rats were exposed to extinction; the rats were placed into the behavioral chambers, but responding on the “cocaine” (active) lever produced no programmed consequences. Extinction training continued until responding decreased to less than 20% of baseline self-administration. Then reinstatement testing commended. The rats were placed into the experimental chambers, both response levers were extended into the chamber, and the stimulus light above the “active” lever was illuminated as during self-administration training. […] Responding on the “active” lever during reinstatement testing was taken as an index of cocaine-seeking behavior. Each experimental group consisted of 8 to 10 rats.

[4] = rat, in vivo
Procedure: Adult male Wistar rats (90 to 120 days old) were implanted with chronic, indwelling jugular catheters and were allowed to recover from surgery. […] Thirty minutes following the drug combination or vehicle injection, the rats received intravenous injections of cocaine (0.25 mg/kg/infusion) every 2 minutes for 1 hour. After the final injection of cocaine, blood was collected from the catheter for the analysis of cocaine and its metabolites ecgonine methyl ester and benzoylecgonine. […] All drug concentrations were determined using GCMS procedures.

male Wistar rats [5] = experiment: Cocaine self-administration following adrenalectomy, with plasma CORT and ACTH; assay type: in vivo, rat
Procedure: Subjects: Male Wistar rats were housed in an AALAC-approved animal care facility and maintained at 85-90% of their free-feeding body weights. These rats were on a reversed 12-hour light, 12-hour dark cycle from the beginning of the experimental procedures.
Catheter surgery: A chronic indwelling jugular catheter (0.012 in i.d.×0.025 in o.d., silicone tubing) was implanted in each rat under pentobarbital anesthesia (50 mg/kg ip) with methyl atropine nitrate pretreatment (10 mg/kg ip). The animals were injected with sterile penicillin G procaine suspension (75,000 units, im) immediately before surgery and allowed 5-7 days to recover.
Adrenalectomy surgery: Animals were anesthetized with pentobarbital (50 mg/kg ip) with methyl atropine nitrate pretreatment (10 mg/kg ip). The adrenal glands were located through an incision and removed. The animals were injected with sterile penicillin G procaine suspension (75,000 units, im) and allowed to recover from surgery for 7 days. After ADX, the rats received drinking water containing 0.9% saline and 1.0% sucrose. Animals in the SHAM group received the same surgery except that the adrenal glands were not removed. They continued to receive tap water to drink.
Equipment: Sound-attenuating operant conditioning chambers (Med-Associates, Inc.) were equipped with two response levers and a stimulus light located directly above each lever. A food pellet dispenser was located between the levers. […] An IBM-compatible personal computer and interface system was used to program the procedure and collect the experimental data.
Alternating Schedule of Cocaine and Food Reinforcement: Following recovery from catheter surgery, the rats were trained to respond under a multiple, alternating schedule of food reinforcement and cocaine self-administration. […]
Hormone Measurements: Blood was collected via the implanted catheters at the end of the behavioral test sessions for the measurement of plasma CORT and adrenocorticotropin releasing hormone (ACTH). […] Plasma CORT and ACTH (ng/ml) were subsequently determined by radioimmunoassay.

male Wistar rats [6] = experiment: Forced Swim Test (FST), animal model of depression
Wistar-derived male rats = experiment: Intravenous nicotine self-administration, fixed-ratio schedule (FR1, TO-20 s); assay type: in vivo, rat
Procedure: Animals: Wistar-derived male rats (250-300 g) were purchased from Harlan Laboratories (Livermore, Calif.), housed in groups of two, and maintained in a temperature-controlled environment on a 12 h:12 h light cycle. Before testing, animals were provided free access to food and water during a one-week habituation period, and were handled daily for several days to desensitize them to handling stress. Each rat included in the data analysis received all treatments in order to obtain reliable estimates of drug effects and decrease the impact of inter-animal variability. Animals were handled, housed, and sacrificed in accord with the current NIH guidelines and all applicable local, state, and federal regulations and guidelines.
Varenicline-HCl (Ontario Chemicals), at 1 mg/kg (expressed as free base), was used as a positive control and administered subcutaneously. Nicotine hydrogen tartrate (Sigma Aldrich) was dissolved in isotonic saline at 0.3 mg/mL (expressed as free base), adjusted to pH 7.0, and diluted to deliver 0.03 mg/kg/infusion. All test compounds were administered 30 minutes prior to nicotine self-administration sessions in a volume of 1 mL/kg.
Apparatus: Food training and nicotine self-administration took place in 8 standard Coulbourn™ operant conditioning chambers. Each chamber was housed in a sound-attenuating chamber. […]

[7] = smoking cessation (Nides et al. 2006); cited from earlier work
[8] = after 40 mg IV cocaine, + EMB-001
[9] = after 40 mg IV cocaine, + Placebo
[10] = high dose of the drug alone, ip
[11] = low, ineffective dose of the drug alone, ip
[12] = pretreatment with the drug alone, general statement

Structure (SMILES): CN1[C@H]2CC[C@@H]1[C@@H](C(=O)O)[C@@H](OC(=O)c1ccccc1)C2 [Benzoylecgonine, benzoylecgonine]
- AUC 0-∞ [1, 8]: 3080 ± 689 ng·h/mL
- Cmax [1, 8]: 198 ± 55 ng/mL
- AUC 0-∞ [1, 9]: 2970 ± 720 ng·h/mL
- Cmax [1, 9]: 199 ± 45 ng/mL

Structure (SMILES): CCCCN(CC)c1nc(C)nc2c1c(C)cn2-c1c(C)cc(C)cc1C [CP-154,526]
- cocaine self-administration (number of cocaine infusions) (adult male Wistar rats [2]; [10]): reduced cocaine self-administration
- food-maintained responding (adult male Wistar rats [2]; [10]): without affecting food-maintained responding
- cocaine self-administration (number of cocaine infusions) (adult male Wistar rats [2]; [11]): did not significantly affect
- food-maintained responding (adult male Wistar rats [2]; [11]): did not significantly affect
- cocaine self-administration (adult male Wistar rats [2]; [12]): decrease
- reinstatement of extinguished cocaine seeking (adult male Wistar rats [3]): decrease

Structure (SMILES): COC(=O)[C@@H]1[C@H]2CC[C@@H](C[C@@H]1O)N2C [Ecgonine Methyl Ester, ecgonine methyl ester]
- AUC 0-∞ [1, 8]: 244 ± 50 ng·h/mL
- Cmax [1, 8]: 20.5 ± 3.7 ng/mL
- AUC 0-∞ [1, 9]: 234 ± 45 ng·h/mL
- Cmax [1, 9]: 21.5 ± 3.7 ng/mL

Structure (SMILES): Cc1nnc2n1-c1ccc(Cl)cc1C(c1ccccc1)=NC2 [alprazolam]
- cocaine self-administration (number of cocaine infusions) (adult male Wistar rats [2]; [10]): reduced cocaine self-administration
- food-maintained responding (adult male Wistar rats [2]; [10]): without affecting food-maintained responding
- cocaine self-administration (number of cocaine infusions) (adult male Wistar rats [2]; [11]): did not significantly affect
- food-maintained responding (adult male Wistar rats [2]; [11]): did not significantly affect
- cocaine self-administration (adult male Wistar rats [2]; [12]): decrease
- reinstatement of extinguished cocaine seeking (adult male Wistar rats [3]): decrease

Structure (SMILES): CC(=O)N1CCN(c2ccc(OCC3COC(Cn4ccnc4)(c4ccc(Cl)cc4Cl)O3)cc2)CC1 (stereo not drawn) [ketoconazole]
- minimally effective dose (reduces cocaine self-administration by at least 50% without affecting food-maintained responding) (adult male Wistar rats [2]; drug alone): 25 mg/kg
- cocaine self-administration (number of cocaine infusions) (adult male Wistar rats [2]; [11]): no effect; also recorded: did not significantly affect
- food-maintained responding (adult male Wistar rats [2]; [11]): no effect; also recorded: did not significantly affect
- cocaine self-administration (adult male Wistar rats [2]; [12]): decrease
- reinstatement of extinguished cocaine seeking (adult male Wistar rats [3]): decrease

Structure (SMILES): CC(C)(c1cccnc1)C(O)c1cccnc1 (stereo not drawn) [metyrapol]
- food-maintained responding (adult male Wistar rats [2]; 25, 50, 100 and 150 mg/kg ip 30 min before): not significantly affected except at the highest doses
- cocaine self-administration (adult male Wistar rats [2]; 25, 50, 100 and 150 mg/kg ip 30 min before, cocaine 0.125, 0.25, 0.5 mg/kg/infusion): dose dependently decreased
- AUC 0-∞ ([1]; human, in vivo): 5480 ± 4840 ng·h/mL
- Cmax ([1]; human, in vivo): 1850 ± 1570 ng/mL

Structure (SMILES): CC(C)(C(=O)c1cccnc1)c1cccnc1 [metyrapone]
- cocaine self-administration (number of cocaine infusions) (adult male Wistar rats [2]; [10]): reduced cocaine self-administration
- food-maintained responding (adult male Wistar rats [2]; [10]): without affecting food-maintained responding
- cocaine self-administration (number of cocaine infusions) (adult male Wistar rats [2]; [11]): did not significantly affect
- food-maintained responding (adult male Wistar rats [2]; [11]): did not significantly affect
- plasma corticosterone (adult male Wistar rats [2]; pretreatment with the drug alone): significant dose-related decreases
- cocaine self-administration (adult male Wistar rats [2]; [12]): decrease; also recorded: significant dose-related decreases
- cue-induced reinstatement (responding on the active lever) (adult male Wistar rats [3]; chronic, 50 mg/kg, ip, once per day for 14 days): reduced cocaine seeking to levels seen when only saline was delivered
- reinstatement of extinguished cocaine seeking (adult male Wistar rats [3]): decrease
- plasma concentration in the presence of cocaine [4]: did not affect
- influence on plasma concentration of the other drug ([4]; ip): did not influence
- blocking cocaine self-administration following adrenalectomy compared to pre-adrenalectomy values (male Wistar rats [5]; MET 50, OX 5, OX 10 mg/kg and combinations): as effective, and possibly even more effective
- plasma ACTH (male Wistar rats [5]; before adrenalectomy): not changed
- plasma corticosterone (male Wistar rats [5]; before adrenalectomy): not changed
- AUC 0-∞ ([1]; human, in vivo): 900 ± 492 ng·h/mL
- Cmax ([1]; human, in vivo): 429 ± 234 ng/mL
- immobility in the FST (male Wistar rats [6]; acute and chronic administration, alone and in combination, oxazepam 5 or 10, metyrapone 25 or 50 mg/kg): effective in reducing immobility
- immobility time (male Wistar rats [6]; chronic, metyrapone 50 mg/kg alone (Met50 group)): showed a lessening of immobility time
- group means of immobility time relative to vehicle (tolerance) (male Wistar rats [6]; chronically treated groups that received only Ox or Met): equal to or exceeded the vehicle

Structure (SMILES): NCc1cc(=O)[nH]o1 [muscimol]
- cocaine self-administration (number of cocaine infusions) (adult male Wistar rats [2]; [10]): reduced cocaine self-administration
- food-maintained responding (adult male Wistar rats [2]; [10]): without affecting food-maintained responding
- cocaine self-administration (number of cocaine infusions) (adult male Wistar rats [2]; [11]): did not significantly affect
- food-maintained responding (adult male Wistar rats [2]; [11]): did not significantly affect

Structure (SMILES): c1cnc2cc3c(cc2n1)[C@@H]1CNC[C@H]3C1 [varenicline]
- nicotine infusions over the 1-hour test session (Wistar-derived male rats; 1 mg/kg sc, reduced from 15.4±1.0): 7.7±1.2
- reduction of nicotine self-administration, varenicline compared with the metyrapone:oxazepam combination (Wistar-derived male rats; fixed-ratio schedule): comparable to those seen with the lowest dose of the combination
- quit rates after one year [7]: 14%
